Assay results published in patent US20230117034A1, “PYRAZOLOTRIAZINES” (Bayer Aktiengesellschaft, priority 2019, published 2023).

Target: T1, CDK12 protein level in CAL-120 breast cancer cells (Homo sapiens, UniProt Q9NYV4)
T1 construct: endogenous in cells; host or cells: CAL-120 human breast cancer cells (DSMZ ACC 459)
Test: CDK12 protein level: Protein Simple (CDK12, CAL-120)
Assay type: cell-based
Conditions: CAL-120 cells, 18 h with compound, CDK12/HSP90 peak area ratio vs vehicle, median, read-out: CDK12 protein level in CAL-120 breast ca cells, DC50-[mol/l] (median)
Procedure, shortened: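 Cells grown 24 h, then treated with compounds for 18 h at 37° C against DMSO controls. Lysates (0.4 microgramms protein) run on Protein Simple 66-440 kDa size assay with CDK12 and HSP90 loading-control antibodies. CDK12/HSP90 peak-area ratios versus vehicle gave DC50 (50% reduction) by 4-parameter fit.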

T1 sequence (Q9NYV4 whole entry): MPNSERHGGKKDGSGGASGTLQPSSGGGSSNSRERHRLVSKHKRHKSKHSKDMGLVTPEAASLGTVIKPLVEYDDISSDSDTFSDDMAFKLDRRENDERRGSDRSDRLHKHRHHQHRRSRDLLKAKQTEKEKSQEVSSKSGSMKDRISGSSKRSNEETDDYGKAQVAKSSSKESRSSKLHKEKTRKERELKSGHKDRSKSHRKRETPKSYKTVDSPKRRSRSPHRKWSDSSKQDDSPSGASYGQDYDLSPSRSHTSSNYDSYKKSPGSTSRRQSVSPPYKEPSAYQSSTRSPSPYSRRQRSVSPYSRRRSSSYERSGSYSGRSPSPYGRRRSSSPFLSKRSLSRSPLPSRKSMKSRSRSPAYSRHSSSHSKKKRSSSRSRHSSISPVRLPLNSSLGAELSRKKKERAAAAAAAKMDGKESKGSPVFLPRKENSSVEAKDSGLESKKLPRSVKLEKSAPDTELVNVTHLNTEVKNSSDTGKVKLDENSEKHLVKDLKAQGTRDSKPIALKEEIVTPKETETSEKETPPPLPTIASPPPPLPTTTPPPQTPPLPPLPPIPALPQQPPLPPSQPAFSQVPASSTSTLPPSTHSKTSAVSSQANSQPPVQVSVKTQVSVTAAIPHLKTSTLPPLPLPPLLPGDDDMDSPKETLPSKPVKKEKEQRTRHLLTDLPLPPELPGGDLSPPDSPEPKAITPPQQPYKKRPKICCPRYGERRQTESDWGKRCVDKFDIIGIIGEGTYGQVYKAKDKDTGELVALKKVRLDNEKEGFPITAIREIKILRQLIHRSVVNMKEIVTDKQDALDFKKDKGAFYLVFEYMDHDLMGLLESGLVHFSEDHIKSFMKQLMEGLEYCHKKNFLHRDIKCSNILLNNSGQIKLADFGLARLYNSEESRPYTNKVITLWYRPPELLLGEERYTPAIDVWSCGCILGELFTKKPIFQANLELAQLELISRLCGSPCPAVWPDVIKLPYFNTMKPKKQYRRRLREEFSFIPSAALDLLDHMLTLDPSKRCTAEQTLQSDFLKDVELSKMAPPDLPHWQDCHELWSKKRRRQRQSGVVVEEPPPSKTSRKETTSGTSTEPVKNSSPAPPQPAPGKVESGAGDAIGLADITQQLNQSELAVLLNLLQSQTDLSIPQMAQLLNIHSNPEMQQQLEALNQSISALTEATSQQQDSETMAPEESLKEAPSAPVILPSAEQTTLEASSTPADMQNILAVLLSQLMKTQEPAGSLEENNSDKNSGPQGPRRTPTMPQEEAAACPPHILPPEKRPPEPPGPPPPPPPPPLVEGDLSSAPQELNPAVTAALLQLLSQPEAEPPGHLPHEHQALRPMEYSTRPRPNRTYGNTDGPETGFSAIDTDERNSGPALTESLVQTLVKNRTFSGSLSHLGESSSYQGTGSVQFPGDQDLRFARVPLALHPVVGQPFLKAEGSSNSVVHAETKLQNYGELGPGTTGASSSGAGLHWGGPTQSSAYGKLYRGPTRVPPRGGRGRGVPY
T1 sequence (O75909 whole entry partner): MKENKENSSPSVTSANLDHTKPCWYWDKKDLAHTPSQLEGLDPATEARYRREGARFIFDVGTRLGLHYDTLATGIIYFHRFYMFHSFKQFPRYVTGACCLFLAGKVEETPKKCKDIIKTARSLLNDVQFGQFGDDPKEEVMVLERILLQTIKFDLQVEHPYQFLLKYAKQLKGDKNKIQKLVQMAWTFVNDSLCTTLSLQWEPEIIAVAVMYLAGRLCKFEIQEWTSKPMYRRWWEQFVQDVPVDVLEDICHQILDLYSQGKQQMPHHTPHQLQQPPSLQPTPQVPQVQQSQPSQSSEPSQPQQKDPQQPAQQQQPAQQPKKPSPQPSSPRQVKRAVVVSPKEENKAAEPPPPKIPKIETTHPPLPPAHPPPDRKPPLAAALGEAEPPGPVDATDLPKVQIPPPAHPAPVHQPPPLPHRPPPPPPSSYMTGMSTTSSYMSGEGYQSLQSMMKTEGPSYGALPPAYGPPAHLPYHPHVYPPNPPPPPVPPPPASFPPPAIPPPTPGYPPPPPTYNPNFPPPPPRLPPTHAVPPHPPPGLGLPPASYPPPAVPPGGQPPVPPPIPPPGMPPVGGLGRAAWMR

Structure (SMILES)	DC50 [nM]
Fc1ccc(-c2cnc(CNc3nc(N4CCOCC4)nc4c(Br)cnn34)[nH]2)cc1 [Example 66, 8-bromo-N-{[5-(4-fluorophenyl)-1H-imidazol-2-yl]methyl}-2-(morpholin-4-yl)pyrazolo[1,5-a][1,3,5]triazin-4-amine]	43.7
Brc1cnn2c(NCc3nnc(-c4ccccc4)[nH]3)nc(N3CCCC3)nc12 [Example 64, 8-bromo-N-[(5-phenyl-4H-1,2,4-triazol-3-yl)methyl]-2-(pyrrolidin-1-yl)pyrazolo[1,5-a][1,3,5]triazin-4-amine]	87.1
CC(C)c1cnn2c(NCc3nc4ccccc4[nH]3)nc(N3CCOCC3)nc12 [Example 1, N-[(1H-benzimidazol-2-yl)methyl]-2-(morpholin-4-yl)-8-(propan-2-yl)pyrazolo[1,5-a][1,3,5]triazin-4-amine]	57.4
COC(=O)C1CCN(c2nc(NCc3nc4ccccc4[nH]3)n3ncc(Br)c3n2)CC1 [Example 63, methyl 1-(4-{[(1H-benzimidazol-2-yl)methyl]amino}-8-bromopyrazolo[1,5-a][1,3,5]triazin-2-yl)piperidine-4-carboxylate]	41.8
COC1CCN(c2nc(NCc3nc4ccccc4[nH]3)n3ncc(Br)c3n2)CC1 [Example 62, N-[(1H-benzimidazol-2-yl)methyl]-8-bromo-2-(4-methoxypiperidin-1-yl)pyrazolo[1,5-a][1,3,5]triazin-4-amine]	128
